# Experimental data taken from PubChem BioAssay AID286 (DTP/NCI, 2004).
# Inconclusive results and toxic doses are left out.
# Tested on: BDF1 mice, M5076 sarcoma ip, median survival T/C
# Assay: NCI In Vivo Anticancer Drug Screen. Data for tumor model Sarcoma M5076 (intraperitoneal) in B6D2F1 (BDF1) mice
# Conditions: endpoint: median survival time, higher = longer survival
# Experimental: The antitumor activity of compounds was measured in mice bearing transplantable tumors. Survival or tumor size were measured and the results are expressed as the measurement made in the treated group (T) divided by the measurement made in the vehicle treated control group (C). The tumor model used in this assay is Sarcoma M5076 (intraperitoneal) in B6D2F1 (BDF1) mice
# [1] = dose: 50.0 mg/kg/injection, schedule: Q04DX004 (ip), vehicle: saline with Tween-80
# [2] = dose: 100.0 mg/kg/injection, schedule: Q04DX004 (ip), vehicle: saline with Tween-80
# [3] = dose: 200.0 mg/kg/injection, schedule: Q04DX004 (ip), vehicle: saline with Tween-80
# [4] = dose: 10.0 mg/kg/injection, schedule: Q04DX005 (ip), vehicle: saline
structure (smiles),measurement,setting,value
O=C1C2C3C=CC(C2C(=O)N1CO)C1C2C(=O)N(CO)C(=O)C2C31 (stereo unspecified),T/C,"dose: 12.5 mg/kg/injection, schedule: Q04DX004 (ip), vehicle: water",106 % of control
same,T/C,"dose: 25.0 mg/kg/injection, schedule: Q04DX004 (ip), vehicle: water",105 % of control
same,T/C,"dose: 50.0 mg/kg/injection, schedule: Q04DX004 (ip), vehicle: water",106 % of control
CCC1(O)CC2CN(CCc3c([nH]c4ccccc34)C(C(=O)OC)(c3cc4c(cc3OC)N(C)C3C(O)(C(N)=O)C(O)C5(CC)C=CCN6CCC43C65)C2)C1 (stereo unspecified) (tested in a mixture with another compound),T/C,"dose: 0.5 mg/kg/injection, schedule: Q04DX005 (ip), vehicle: saline",208 % of control
same,T/C,"dose: 1.0 mg/kg/injection, schedule: Q04DX005 (ip), vehicle: saline",208 % of control
Cc1c(N)nc([C@H](CC(N)=O)NC[C@H](N)C(N)=O)nc1C(=O)N[C@H](C(=O)N[C@H](C)[C@@H](O)[C@H](C)C(=O)N[C@H](C(=O)NCCc1nc(-c2nc(C(=O)NCCC[S+](C)C)cs2)cs1)[C@@H](C)O)C(OC1OC(CO)C(O)C(O)C1OC1OC(CO)C(O)C(OC(N)=O)C1O)c1cnc[nH]1 (stereo partly specified),T/C,"dose: 4.0 mg/kg/injection, schedule: Q04DX004 (ip), vehicle: saline",113 % of control
same,T/C,"dose: 8.0 mg/kg/injection, schedule: Q04DX004 (ip), vehicle: saline",101 % of control
same,T/C,"dose: 16.0 mg/kg/injection, schedule: Q04DX004 (ip), vehicle: saline",117 % of control
same,T/C,"dose: 32.0 mg/kg/injection, schedule: Q04DX004 (ip), vehicle: saline",116 % of control
CC(=O)N(C)O,T/C,"dose: 37.0 mg/kg/injection, schedule: Q04DX004 (ip), vehicle: saline with Tween-80",99 % of control
same,T/C,"dose: 75.0 mg/kg/injection, schedule: Q04DX004 (ip), vehicle: saline with Tween-80",107 % of control
same,T/C,"dose: 150.0 mg/kg/injection, schedule: Q04DX004 (ip), vehicle: saline with Tween-80",107 % of control
same,T/C,"dose: 300.0 mg/kg/injection, schedule: Q04DX004 (ip), vehicle: saline with Tween-80",113 % of control
same,T/C,"dose: 600.0 mg/kg/injection, schedule: Q04DX004 (ip), vehicle: saline with Tween-80",103 % of control
CC1=C[P+](c2ccccc2)(c2ccccc2)C=C(c2ccccc2)O1,T/C,"dose: 1.25 mg/kg/injection, schedule: Q04DX004 (ip), vehicle: saline + alcohol",99 % of control
same,T/C,"dose: 2.5 mg/kg/injection, schedule: Q04DX004 (ip), vehicle: saline + alcohol",107 % of control
same,T/C,"dose: 5.0 mg/kg/injection, schedule: Q04DX004 (ip), vehicle: saline + alcohol",118 % of control
COc1cc(C)c(C2NC(=O)c3ccccc3N2)cc1C (stereo unspecified),T/C,"dose: 12.5 mg/kg/injection, schedule: Q04DX004 (ip), vehicle: saline with Tween-80",102 % of control
same,T/C,"dose: 25.0 mg/kg/injection, schedule: Q04DX004 (ip), vehicle: saline with Tween-80",102 % of control
same,T/C,[1],90 % of control
same,T/C,[2],105 % of control
same,T/C,[3],124 % of control
CN(C)CCN1C(=O)c2cccc3cc(N)cc(c23)C1=O,T/C,"dose: 4.5 mg/kg/injection, schedule: Q04DX004 (ip), vehicle: acid diluted with saline",109 % of control
same,T/C,"dose: 9.0 mg/kg/injection, schedule: Q04DX004 (ip), vehicle: acid diluted with saline",107 % of control
same,T/C,"dose: 18.0 mg/kg/injection, schedule: Q04DX004 (ip), vehicle: acid diluted with saline",115 % of control
O=C1c2ccccc2C(=O)c2c(NCCNCCO)ccc(NCCNCCO)c21,T/C,"dose: 5.0 mg/kg/injection, schedule: Q04DX005 (ip), vehicle: saline",277 % of control
same,T/C,[4],357 % of control
O=C(O)c1ccc(C(=O)O)c(C(=O)O)c1.[NH-]C1CCCCC1[NH-].[Pt+2],T/C,"dose: 3.11 mg/kg/injection, schedule: Q04DX005 (ip), vehicle: sodium bicarbonate",206 % of control
same,T/C,"dose: 5.18 mg/kg/injection, schedule: Q04DX005 (ip), vehicle: sodium bicarbonate",181 % of control
same,T/C,"dose: 8.64 mg/kg/injection, schedule: Q04DX005 (ip), vehicle: sodium bicarbonate",216 % of control
same,T/C,"dose: 14.4 mg/kg/injection, schedule: Q04DX005 (ip), vehicle: sodium bicarbonate",245 % of control
same,T/C,"dose: 24.0 mg/kg/injection, schedule: Q04DX005 (ip), vehicle: sodium bicarbonate",381 % of control
same,T/C,"dose: 40.0 mg/kg/injection, schedule: Q04DX005 (ip), vehicle: sodium bicarbonate",87 % of control
CN(Cc1cnc2nc(N)nc(N)c2n1)c1ccc(C(=O)N[C@@H](CCC(=O)O)C(=O)O)cc1,T/C,"dose: 1.7 mg/kg/injection, schedule: Q01DX009 (ip), vehicle: sodium bicarbonate",93 % of control
same,T/C,"dose: 2.0 mg/kg/injection, schedule: Q04DX005 (ip), vehicle: sodium bicarbonate",108 % of control
same,T/C,"dose: 2.6 mg/kg/injection, schedule: Q01DX009 (ip), vehicle: sodium bicarbonate",101 % of control
same,T/C,"dose: 4.0 mg/kg/injection, schedule: Q04DX005 (ip), vehicle: sodium bicarbonate",101 % of control
same,T/C,"dose: 8.0 mg/kg/injection, schedule: Q04DX005 (ip), vehicle: sodium bicarbonate",112 % of control
O=P1(N(CCCl)CCCl)NCCCO1 (stereo unspecified),T/C,[4],180 % of control
OC(CBr)C(O)C(O)C(O)CBr (stereo unspecified),T/C,[1],111 % of control
same,T/C,[2],114 % of control
same,T/C,"dose: 108.0 mg/kg/injection, schedule: Q04DX005 (ip), vehicle: saline with Tween-80",122 % of control
same,T/C,[3],114 % of control
same,T/C,"dose: 400.0 mg/kg/injection, schedule: Q04DX004 (ip), vehicle: saline with Tween-80",114 % of control
same,T/C,"dose: 500.0 mg/kg/injection, schedule: Q04DX005 (ip), vehicle: saline with Tween-80",176 % of control
same,T/C,"dose: 800.0 mg/kg/injection, schedule: Q04DX004 (ip), vehicle: saline with Tween-80",108 % of control
same,T/C,"dose: 833.0 mg/kg/injection, schedule: Q04DX005 (ip), vehicle: saline with Tween-80",176 % of control
C=C1C(=O)O[C@H]2C1[C@H](OC(=O)/C(C)=C\C)CC(=C)[C@@H]1C(=O)[C@H]3O[C@@]3(C)[C@@]12O (stereo partly specified),T/C,"dose: 0.5 mg/kg/injection, schedule: Q01DX009 (ip), vehicle: saline + alcohol",107 % of control
same,T/C,"dose: 1.0 mg/kg/injection, schedule: Q01DX009 (ip), vehicle: saline + alcohol",102 % of control
same,T/C,"dose: 2.0 mg/kg/injection, schedule: Q01DX009 (ip), vehicle: saline + alcohol",104 % of control
same,T/C,"dose: 5.0 mg/kg/injection, schedule: Q01DX009 (ip), vehicle: saline + alcohol",113 % of control
COC(=O)C1=C2Nc3ccccc3C23CCN2C(O)C4(CC5CC67CCOC6CCN6CCC8(c9cccc(OC)c9N(C4)C58O)C67)C4OCCC4(C1)C23 (stereo unspecified),T/C,"dose: 3.12 mg/kg/injection, schedule: Q01DX009 (ip), vehicle: Klucel (hydroxypropylcellulose) (HPC)",102 % of control
same,T/C,"dose: 6.25 mg/kg/injection, schedule: Q01DX009 (ip), vehicle: Klucel (hydroxypropylcellulose) (HPC)",100 % of control
same,T/C,"dose: 12.5 mg/kg/injection, schedule: Q01DX009 (ip), vehicle: Klucel (hydroxypropylcellulose) (HPC)",106 % of control
same,T/C,"dose: 25.0 mg/kg/injection, schedule: Q01DX009 (ip), vehicle: Klucel (hydroxypropylcellulose) (HPC)",99 % of control
same,T/C,"dose: 50.0 mg/kg/injection, schedule: Q01DX009 (ip), vehicle: Klucel (hydroxypropylcellulose) (HPC)",104 % of control
N#CC(C#N)=NNc1ccc2cn[nH]c2c1,T/C,"dose: 12.5 mg/kg/injection, schedule: Q04DX004 (ip), vehicle: Klucel (hydroxypropylcellulose) (HPC)",105 % of control
same,T/C,"dose: 25.0 mg/kg/injection, schedule: Q04DX004 (ip), vehicle: Klucel (hydroxypropylcellulose) (HPC)",95 % of control
same,T/C,"dose: 50.0 mg/kg/injection, schedule: Q04DX004 (ip), vehicle: Klucel (hydroxypropylcellulose) (HPC)",90 % of control
same,T/C,"dose: 100.0 mg/kg/injection, schedule: Q04DX004 (ip), vehicle: Klucel (hydroxypropylcellulose) (HPC)",103 % of control
CC1(C)N=C(N)N=C(N)N1c1ccc(CCCCc2ccc(S(=O)(=O)F)cc2Cl)c(Cl)c1,T/C,"dose: 5.0 mg/kg/injection, schedule: Q01DX009 (ip), vehicle: Klucel (hydroxypropylcellulose) (HPC)",220 % of control
same,T/C,"dose: 10.0 mg/kg/injection, schedule: Q01DX009 (ip), vehicle: Klucel (hydroxypropylcellulose) (HPC)",251 % of control
same,T/C,"dose: 20.0 mg/kg/injection, schedule: Q01DX009 (ip), vehicle: Klucel (hydroxypropylcellulose) (HPC)",303 % of control
same,T/C,"dose: 40.0 mg/kg/injection, schedule: Q01DX009 (ip), vehicle: Klucel (hydroxypropylcellulose) (HPC)",388 % of control
same,T/C,"dose: 40.0 mg/kg/injection, schedule: Q01DX009 (ip), vehicle: saline with Tween-80",224 % of control
same,T/C,"dose: 60.0 mg/kg/injection, schedule: Q01DX009 (ip), vehicle: saline with Tween-80",224 % of control
